Key:
[1] = Dissolution of amorphous matter in various solvents (selection of crystallization solvents); type: physicochemical
Description: The amorphous matter (10 mg) of compound (I) was weighed into a borosilicate glass vial, each solvent in Table 3 was added at the corresponding amount of solvent added in Table 3, and confirmed whether or not the amorphous matter was dissolved. […] Subsequently, the vial was shaken at room temperature in an airtight state for 7 days. However, no solid precipitated in either case. […] It was therefore judged that they were unsuitable as a crystallization solvent.

[2] = Evaluation of hygroscopicity (equilibrium moisture measurement); type: physicochemical; settings: 30° C.
Description: Equilibrium moisture measurement was performed on Form A crystal and the amorphous matter of compound (I) under the following conditions using a fully automated symmetric vapor sorption analyzer (TA Instruments Inc.; VTI-SA+). […] The change in appearance was also observed.

[3] = Evaluation of storage stability, Form A crystal versus amorphous matter (HPLC purity); type: physicochemical; settings: airtight state
[4] = test system: fibromyalgia model rats; assay: Analgesic effect on allodynia in fibromyalgia model rats (von Frey, 50% response threshold); type: in vivo, rat; settings: oral 10 mg/kg, measured 3 hours after administration, Day 7, compared to negative control group
Description: The analgesic effect of the crystal of compound (I) or the pharmacologically acceptable salt thereof against fibromyalgia syndrome was evaluated using fibromyalgia model rats (Sluka et al., Journal of Pharmacology and Experimental Therapeutics, 2002, vol. 302, pp. 1146-1150; Nagakura et al., Pain, 2009, vol. 146, pp. 26-33; Sluka et al., Pain, 2009, vol. 146, pp. 3-4). Form A crystal of compound (I) was used as a crystal of compound (I) or the pharmacologically acceptable salt thereof for evaluation.
The above model rats were prepared as follows. In experiments, 6-to 7-week-old SD male rats were used for 5 or 6 cases per group. 100 μL of acidic physiological saline adjusted to pH 4.0 was administered twice to the gastrocnemius muscle of the right hind paw of each rat (the day of the administration of acidic physiological saline was defined as Day 1 after the start of the experiment, and single dose administrations were carried out on Days 1 and 6 after the start of the experiment) under inhalation anesthesia with isoflurane. The thus prepared group was determined to be an acidic physiological saline group. As a control for the model, a group treated with a physiological saline instead of an acidic physiological saline was determined to be a physiological saline group.
Allodynia observed in fibromyalgia model rats was measured using a von Frey filaments according to a method described in a known publication (Chaplan et al., Journal of Neuroscience Methods, 1994, vol. 53, pp. 55-63) and a 50% response threshold (g) was determined. On Day 7 after the start of the experiment, allodynia was measured 3 hours after oral administration of Form A crystal of compound (I), and the analgesic effect was evaluated. Allodynia of the acidic physiological saline group was measured before oral administration of Form A crystal of compound (I). […] Allodynia was measured 3 hours after the oral administration of the crystal of compound (I), and the analgesic effect was evaluated. […]

[5] = test system: spinal nerve ligation model rats (neuropathic pain model rats); assay: Analgesic effect on allodynia in spinal nerve ligation model rats (von Frey, 50% response threshold); type: in vivo, rat; settings: oral 10 mg/kg, measured 3 hours after administration, 8 days after ligation, compared to negative control group
Description: Analgesic effects of the crystal of compound (I) or the pharmacologically acceptable salt thereof upon neuropathic pain were evaluated using spinal nerve ligation model rats (Kim and Chung, Pain, 1992, vol. 50, p. 355). Form A crystal of compound (I) was used as a crystal of compound (I) or the pharmacologically acceptable salt thereof for evaluation.
The above model rats were prepared as follows. In experiments, 6-to 7-week-old SD male rats were used for 5 to 7 cases per group, and the lumbar skin and muscle of each rat were dissected to expose the L5 and L6 […] under inhalation anesthesia with isoflurane. After ligating the L5 and L6 spinal nerves with silk suture, the wound of each rat was sutured. Thus, a nerve ligation group was prepared. The group in which the nerve was exposed but not ligated was determined to be a sham surgery group.
Allodynia observed in spinal nerve ligation model rats was measured using a von Frey filaments according to a method described in a known publication (Chaplan et al., J. Neurosci. Methods, 1994, vol. 53, p. 55) and a 50% response threshold (g) was determined. Eight days after the ligation surgery, allodynia of the nerve ligation group was measured before oral administration of Form A crystal of compound (I). Rats with a 50% response threshold (average value of the right hind paw and the left hind paw) of 2 g to less than 6 g were considered to have developed allodynia. The rats were divided as neuropathic pain model rats into groups such that there was no significant difference in the 50% response threshold between groups. Allodynia was measured 3 hours after the oral administration of Form A crystal of compound (I), and the analgesic effect was evaluated. Pregabalin was used as a positive control.
Form A crystal of compound (I) was dissolved in water for injection (distilled water) to result in concentrations of 5, 10, and 20 mg/mL, and orally administered in a dose volume of 1 mL per kg body weight. Pregabalin was dissolved in water for injection (distilled water) to result in a concentration of 10 mg/mL and orally administered in a dose volume of 1 mL per kg of body weight. Water for injection (distilled water) was orally administered to the sham surgery group. A group in which water for injection (distilled water) was orally administered to rats in the nerve ligation group was defined as a negative control group.
The horizontal axis represents the solution to be administered in each group, namely, the nerve ligation group or sham surgery group, and the vertical axis represents the 50% response threshold (g) (mean±standard error, n=5 to 7). […]

[6] = Evaluation of solubility in Japanese Pharmacopoeia test fluids; type: physicochemical; settings: aqueous buffer, thermodynamic from solid; 2nd fluid for disintegration test of the Japanese Pharmacopoeia 16th edition (pH 6.8), 37° C., 30 minutes; read-out: Solubility (37° C.)
Description: Form A crystal of compound (I) (100 mg) was weighed into a borosilicate glass vial, and the 1st fluid for disintegration test/1st fluid for dissolution test of the Japanese Pharmacopoeia 16th edition (pH 1.2)(1 mL) or the 2nd fluid for disintegration test of the Japanese Pharmacopoeia 16th edition (pH 6.8)(1 mL) was added in a temperature and humidity test chamber (Amefrec Co., Ltd.; NO DOORα) adjusted to 37° C., followed by stirring. Form B crystal of ethane disulfonate of compound (I) (10 mg) was weighed into a borosilicate glass vial, and the 2nd fluid for disintegration test of the Japanese Pharmacopoeia 16th edition (pH 6.8) (0.1 mL) was added in a temperature and humidity test chamber (Amefrec Co., Ltd.; NO DOORα) adjusted to 37° C., followed by stirring. After 30 minutes, the inside of each vial was visually checked, and it was confirmed that each crystal was completely dissolved.

[7] = 40° C., relative humidity 75%, 8 weeks

CN(C)C1CCN(C(=O)C[C@H](O)c2nccn2C)CC1 [Amorphous matter, (S)-1-(4-(dimethylamino)piperidin-1-yl)-3-hydroxy-3-(1-methyl-1H-imidazol-2-yl)propan-1-one]
turned into oil matter: Change in appearance ([2]; humidification, listed as amorphous matter)
91.5%: Chemical purity, After storage ([3]; 60° C., 4 weeks)
less than 5%: relative humidity at which the substance deliquesced [2]
Soluble: Appearance of solution ([1]; 1-Butanol, 0.02 mL added, 500 mg/mL) | Appearance of solution ([1]; 1-Propanol, 0.02 mL added, 500 mg/mL) | Appearance of solution ([1]; 2-Butanone, 0.02 mL added, 500 mg/mL) | Appearance of solution ([1]; 2-Propanol, 0.005 mL added, 2000 mg/mL) | Appearance of solution ([1]; 2-Propanol, 0.02 mL added, 500 mg/mL) | Appearance of solution ([1]; 4-Methyl-2-pentanone, 0.02 mL added, 500 mg/mL) | Appearance of solution ([1]; Acetone, 0.01 mL added, 1000 mg/mL) | Appearance of solution ([1]; Acetone, 0.02 mL added, 500 mg/mL) | Appearance of solution ([1]; Acetonitrile, 0.005 mL added, 2000 mg/mL) | Appearance of solution ([1]; Acetonitrile, 0.02 mL added, 500 mg/mL) | Appearance of solution ([1]; Chlorobenzene, 0.02 mL added, 500 mg/mL) | Appearance of solution ([1]; Chloroform, 0.005 mL added, 2000 mg/mL) | Appearance of solution ([1]; Chloroform, 0.02 mL added, 500 mg/mL) | Appearance of solution ([1]; Ethanol, 0.02 mL added, 500 mg/mL) | Appearance of solution ([1]; Ethyl acetate, 0.005 mL added, 2000 mg/mL) | Appearance of solution ([1]; Ethyl acetate, 0.01 mL added, 1000 mg/mL) | Appearance of solution ([1]; Ethyl acetate, 0.02 mL added, 500 mg/mL) | Appearance of solution ([1]; Ethyl formate, 0.02 mL added, 500 mg/mL) | Appearance of solution ([1]; Isobutyl acetate, 0.02 mL added, 500 mg/mL) | Appearance of solution ([1]; Isopropyl acetate, 0.02 mL added, 500 mg/mL) | Appearance of solution ([1]; Methanol, 0.005 mL added, 2000 mg/mL) | Appearance of solution ([1]; Methanol, 0.02 mL added, 500 mg/mL) | Appearance of solution ([1]; Methyl acetate, 0.02 mL added, 500 mg/mL) | Appearance of solution ([1]; Tetrahydrofuran, 0.01 mL added, 1000 mg/mL) | Appearance of solution ([1]; Tetrahydrofuran, 0.02 mL added, 500 mg/mL) | Appearance of solution ([1]; Toluene, 0.005 mL added, 2000 mg/mL) | Appearance of solution ([1]; Toluene, 0.02 mL added, 500 mg/mL) | Appearance of solution ([1]; Water, 0.02 mL added, 500 mg/mL)
98.7 % ee: Optical purity, After storage [3, 7]
not dissolved at all: Appearance of solution ([1]; Cyclohexane, 3 mL added, 3 mg/mL) | Appearance of solution ([1]; Heptane, 3 mL added, 3 mg/mL)
4 different: Decomposition product increased by not less than 0.15% after storage [3, 7]
7 different: Decomposition product increased by not less than 0.15% after storage ([3]; 60° C., 4 weeks)
97.2%: Chemical purity, After storage [3, 7]
Insoluble: Appearance of solution ([1]; Cyclohexane, 0.02 mL added, 500 mg/mL) | Appearance of solution ([1]; Cyclohexane, 3 mL added, 3 mg/mL, listed as amorphous matter of compound (I)) | Appearance of solution ([1]; Heptane, 0.02 mL added, 500 mg/mL) | Appearance of solution ([1]; Heptane, 3 mL added, 3 mg/mL, listed as amorphous matter of compound (I))
98.9 % ee: Optical purity, After storage ([3]; 60° C., 4 weeks)
≥ 500000 µg/mL: concentration at which completely dissolved ([1]; each solvent in Table 3 (text summary; cyclohexane and heptane excepted))

CC(C)C[C@H](CN)CC(=O)O [pregabalin, reference compound]
significant improvement: improvement of allodynia (50% response threshold) [4] | improvement of allodynia (50% response threshold) [5]

CN(C)C1CCN(C(=O)C[C@H](O)c2nccn2C)CC1 [Form B crystal of ethane disulfonate, (S)-1-(4-(dimethylamino)piperidin-1-yl)-3-hydroxy-3-(1-methyl-1H-imidazol-2-yl)propan-1-one]
> 100 mg/mL: solubility at 30 min [6]
